For this test, the system named is diabetic rats (blood glucose level, BGL). The experiment in a line: BGL pharmacodynamics after insulin administration to diabetic rats. The format is in vivo, rat. The settings on record: bolus subcutaneous injection of 0.1 U insulin, unbalanced ANOVA, P < 0.001.

Regarding Insulin, the “reduction in BGL compared to untreated controls” value is “significant reduction in BGL”.

These data come from publication PMC3152630 (Pharmaceutical research, 2011).
